Data on eleven compounds can be found in patent US9139557B2, “Carboxamide compounds and their use as calpain inhibitors” (Abbott GmbH & Co. KG, priority 2006, dated 2015).

Holding throughout (assay type): biochemical
One assay has as its target T1, cathepsin S (Homo sapiens, UniProt P25774).
T1 construct: purchased Calbiochem 219343; host or cells: E. coli
Kind of assay: Cathepsin S enzyme inhibition in vitro (kinetic fluorescence assay). The note with it: Ki(cathepsin S)/Ki(calpain) ratio. The gist of the method: (§1)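 Kinetic fluorescence (ex 390/em 460 nm), room temperature: calpain-I (human erythrocyte, 20 nM) with 100 µM Suc-Leu-Tyr-AMC, imidazole/CaCl2 pH 7.3; cathepsin B (liver, 0.25 nM), 100 µM Z-Phe-Arg-AMC; L (liver, 1 nM), 2 µM Z-Phe-Arg-AMC; S (recombinant, 0.5 nM), 20 µM Z-Val-Val-Arg-AMC; cathepsins in MES/EDTA/cysteine pH 6.0. Apparent Ki via Cheng-Prusoff, 2–4 curves averaged.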

The target in a further assay is T2, cathepsin B (Homo sapiens, UniProt P07858).
T2 construct: cathepsin B—isolated from human liver; purchased Calbiochem 219362; host or cells: human liver (tissue isolate)
The experiment in a line: Cathepsin B enzyme inhibition in vitro (kinetic fluorescence assay). The note with it: Ki(cathepsin B)/Ki(calpain) ratio. Put shortly:
as §1

The next assay addresses T3, cathepsin K (Homo sapiens, UniProt P43235).
T3 construct: purchased Calbiochem 342001; host or cells: E. coli
T3 sequence (P43235 115-329): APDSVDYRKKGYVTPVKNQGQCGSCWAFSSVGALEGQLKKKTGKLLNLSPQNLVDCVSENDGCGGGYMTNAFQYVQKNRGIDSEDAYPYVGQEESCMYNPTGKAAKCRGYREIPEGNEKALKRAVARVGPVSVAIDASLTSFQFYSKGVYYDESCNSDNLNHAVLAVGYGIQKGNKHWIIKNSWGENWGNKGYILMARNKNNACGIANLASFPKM
The experiment in a line: Cathepsin K enzyme inhibition in vitro (kinetic fluorescence assay). The conditions noted are these: Ki(cathepsin K)/Ki(calpain) ratio.

A further assay deals with T4, cathepsin L (Homo sapiens, UniProt P07711).
T4 construct: cathepsin L—isolated from human liver; purchased Calbiochem 219402; host or cells: human liver (tissue isolate)
T4 sequence (P07711 114-333): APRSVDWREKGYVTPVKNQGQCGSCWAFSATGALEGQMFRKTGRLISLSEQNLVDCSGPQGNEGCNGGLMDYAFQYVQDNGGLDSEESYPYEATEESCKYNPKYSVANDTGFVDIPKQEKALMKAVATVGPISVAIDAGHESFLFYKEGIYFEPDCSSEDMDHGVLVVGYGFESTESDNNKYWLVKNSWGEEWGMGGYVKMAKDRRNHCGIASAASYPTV
The experiment in a line: Cathepsin L enzyme inhibition in vitro (kinetic fluorescence assay). The note with it: Ki(cathepsin L)/Ki(calpain) ratio. Put shortly: as §1

T1 sequence (P25774 115-331): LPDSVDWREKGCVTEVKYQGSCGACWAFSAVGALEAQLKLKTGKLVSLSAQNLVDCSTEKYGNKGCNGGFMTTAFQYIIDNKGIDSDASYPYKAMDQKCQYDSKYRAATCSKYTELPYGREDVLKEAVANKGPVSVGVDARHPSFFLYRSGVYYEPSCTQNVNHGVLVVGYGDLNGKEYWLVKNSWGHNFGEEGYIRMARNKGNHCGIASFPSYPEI

For `NC(=O)C(=O)C(Cc1ccc(OC(F)(F)F)cc1)NC(=O)c1cccnc1-n1ccc(-c2ccc(F)cc2)n1` (centres unmarked) [Example 132, N-[3-Amino-2,3-dioxo-1-({4-[(trifluoromethyl)oxy]phenyl}methyl)propyl]-2-[3-(4-fluorophenyl)-1H-pyrazol-1-yl]pyridine-3-carboxamide], the “Sel cat. S” value on cathepsin S is listed as “++ (++ means a Ki(cathepsin S)/Ki(calpain) ratio of ≧100)”. Moreover, the “Sel cat. B” value at cathepsin B is “+ (+ means 10≦Ki(cathepsin B)/Ki(calpain)<30)”. Besides, the “Sel cat. K” value at cathepsin K is given as “++ (++ means a Ki(cathepsin K)/Ki(calpain) ratio of ≧30)”. Moreover, on cathepsin L, the “Sel cat. L” value is reported as “++ (++ means a Ki(cathepsin L)/Ki(calpain) ratio of ≧50)”.

As to `NC(=O)C(=O)C(Cc1ccccc1)NC(=O)c1cccnc1-n1ccc(-c2ccccc2OC(F)F)n1` (centres unmarked) [Example 166, N-[3-Amino-2,3-dioxo-1-(phenylmethyl)propyl]-2-(3-{2-[(difluoromethyl)oxy]phenyl}-1H-pyrazol-1-yl)pyridine-3-carboxamide], the “Sel cat. S” value on cathepsin S is “++ (++ means a Ki(cathepsin S)/Ki(calpain) ratio of ≧100)”. On cathepsin B, the “Sel cat. B” value is given as “+ (+ means 10≦Ki(cathepsin B)/Ki(calpain)<30)”. At cathepsin K, the “Sel cat. K” value is given as “++ (++ means a Ki(cathepsin K)/Ki(calpain) ratio of ≧30)”. On cathepsin L, the “Sel cat. L” value is on record as “++ (++ means a Ki(cathepsin L)/Ki(calpain) ratio of ≧50)”.

As to `NC(=O)C(=O)C(Cc1ccc(F)cc1)NC(=O)c1cccnc1-n1ccc(-c2ccc(Cl)cc2Cl)n1` (centres unmarked) [Example 114, N-{-3-Amino-1-[(4-fluorophenyl)methyl]-2,3-dioxopropyl}-2-[3-(2,4-dichlorophenyl)-1H-pyrazol-1-yl]pyridine-3-carboxamide], at cathepsin S, the “Sel cat. S” value was “++ (++ means a Ki(cathepsin S)/Ki(calpain) ratio of ≧100)”. Moreover, at cathepsin B, the “Sel cat. B” value was “++ (++ means a Ki(cathepsin B)/Ki(calpain) ratio of ≧30)”. Also, the “Sel cat. K” value at cathepsin K was “++ (++ means a Ki(cathepsin K)/Ki(calpain) ratio of ≧30)”. Moreover, the “Sel cat. L” value at cathepsin L is given as “++ (++ means a Ki(cathepsin L)/Ki(calpain) ratio of ≧50)”.

Take `NC(=O)C(=O)C(Cc1ccccc1)NC(=O)c1cccnc1-n1ccc(-c2ccc(F)cc2F)n1` (centres unmarked) [Example 94, N-[3-Amino-2,3-dioxo-1-(phenylmethyl)propyl]-2-[3-(2,4-difluorophenyl)-1H-pyrazol-1-yl]pyridine-3-carboxamide]: at cathepsin S, the “Sel cat. S” value is recorded as “++ (++ means a Ki(cathepsin S)/Ki(calpain) ratio of ≧100)”. Besides, the “Sel cat. B” value on cathepsin B is on record as “++ (++ means a Ki(cathepsin B)/Ki(calpain) ratio of ≧30)”. The “Sel cat. K” value at cathepsin K was “+ (+ means 10≦Ki(cathepsin K)/Ki(calpain)<30)”. Besides, the “Sel cat. L” value on cathepsin L was “++ (++ means a Ki(cathepsin L)/Ki(calpain) ratio of ≧50)”.

In the case of `COc1ccc(CC(NC(=O)c2cccnc2-n2ccc(-c3ccc(F)cc3F)n2)C(=O)C(N)=O)cc1` (centres unmarked) [Example 97, N-(3-Amino-1-{[4-(methyloxy)phenyl]methyl}-2,3-dioxopropyl)-2-[3-(2,4-difluorophenyl)-1H-pyrazol-1-yl]pyridine-3-carboxamide], the “Sel cat. S” value on cathepsin S is “++ (++ means a Ki(cathepsin S)/Ki(calpain) ratio of ≧100)”. In addition, the “Sel cat. B” value at cathepsin B is “++ (++ means a Ki(cathepsin B)/Ki(calpain) ratio of ≧30)”. The “Sel cat. K” value on cathepsin K is on record as “+ (+ means 10≦Ki(cathepsin K)/Ki(calpain)<30)”. On cathepsin L, the “Sel cat. L” value is on record as “++ (++ means a Ki(cathepsin L)/Ki(calpain) ratio of ≧50)”.

Regarding `CS(=O)(=O)Nc1cnc(-n2ccc(-c3ccccc3)n2)c(C(=O)NC(Cc2ccccc2)C(=O)C(N)=O)c1` (centres unmarked) [Example 158, N-[3-Amino-2,3-dioxo-1-(phenylmethyl)propyl]-5-[(methylsulfonyl)amino]-2-(3-phenyl-1H-pyrazol-1-yl)pyridine-3-carboxamide], the “Sel cat. S” value on cathepsin S was “++ (++ means a Ki(cathepsin S)/Ki(calpain) ratio of ≧100)”. The “Sel cat. B” value on cathepsin B was “++ (++ means a Ki(cathepsin B)/Ki(calpain) ratio of ≧30)”. For the same compound, the “Sel cat. K” value on cathepsin K was “++ (++ means a Ki(cathepsin K)/Ki(calpain) ratio of ≧30)”. In addition, the “Sel cat. L” value on cathepsin L was “++ (++ means a Ki(cathepsin L)/Ki(calpain) ratio of ≧50)”.

With `NC(=O)C(=O)C(Cc1ccccc1)NC(=O)c1cccnc1-n1ccc(-c2c(F)cc(F)cc2F)n1` (centres unmarked) [Example 116, N-[3-Amino-2,3-dioxo-1-(phenylmethyl)propyl]-2-[3-(2,4,6-trifluorophenyl)-1H-pyrazol-1-yl]pyridine-3-carboxamide], the “Sel cat. S” value at cathepsin S is “++ (++ means a Ki(cathepsin S)/Ki(calpain) ratio of ≧100)”. The “Sel cat. B” value on cathepsin B is reported as “++ (++ means a Ki(cathepsin B)/Ki(calpain) ratio of ≧30)”. The “Sel cat. K” value at cathepsin K was “+ (+ means 10≦Ki(cathepsin K)/Ki(calpain)<30)”. The “Sel cat. L” value on cathepsin L was “++ (++ means a Ki(cathepsin L)/Ki(calpain) ratio of ≧50)”.

For `NC(=O)C(=O)C(Cc1ccccc1)NC(=O)c1cccnc1-n1ccc(-c2ccc(Cl)s2)n1` (centres unmarked) [Example 103, N-[3-Amino-2,3-dioxo-1-(phenylmethyl)propyl]-2-[3-(5-chloro-2-thienyl)-1H-pyrazol-1-yl]pyridine-3-carboxamide], the “Sel cat. S” value at cathepsin S is given as “++ (++ means a Ki(cathepsin S)/Ki(calpain) ratio of ≧100)”. The “Sel cat. B” value at cathepsin B is on record as “+ (+ means 10≦Ki(cathepsin B)/Ki(calpain)<30)”. In addition, the “Sel cat. K” value at cathepsin K is on record as “+ (+ means 10≦Ki(cathepsin K)/Ki(calpain)<30)”. Moreover, at cathepsin L, the “Sel cat. L” value is listed as “++ (++ means a Ki(cathepsin L)/Ki(calpain) ratio of ≧50)”.

Regarding `NC(=O)C(=O)C(Cc1ccccc1)NC(=O)c1cccnc1-n1ccc(-c2sccc2Cl)n1` (centres unmarked) [Example 109, N-[3-Amino-2,3-dioxo-1-(phenylmethyl)propyl]-2-[3-(3-chloro-2-thienyl)-1H-pyrazol-1-yl]pyridine-3-carboxamide], on cathepsin S, the “Sel cat. S” value was “++ (++ means a Ki(cathepsin S)/Ki(calpain) ratio of ≧100)”. The “Sel cat. B” value on cathepsin B was “++ (++ means a Ki(cathepsin B)/Ki(calpain) ratio of ≧30)”. Moreover, on cathepsin K, the “Sel cat. K” value is listed as “++ (++ means a Ki(cathepsin K)/Ki(calpain) ratio of ≧30)”. The “Sel cat. L” value on cathepsin L was “++ (++ means a Ki(cathepsin L)/Ki(calpain) ratio of ≧50)”.

In the case of `NC(=O)C(=O)C(Cc1ccccc1)NC(=O)c1cccnc1-n1ccc(-c2ccc(F)cc2Cl)n1` (centres unmarked) [Example 71, N-(3-Amino-1-benzyl-2,3-dioxopropyl)-2-[3-(2-chloro-4-fluorophenyl)-1H-pyrazol-1-yl]nicotinamide], on cathepsin S, the “Sel cat. S” value is listed as “++ (++ means a Ki(cathepsin S)/Ki(calpain) ratio of ≧100)”. The “Sel cat. B” value on cathepsin B was “++ (++ means a Ki(cathepsin B)/Ki(calpain) ratio of ≧30)”. For the same compound, on cathepsin K, the “Sel cat. K” value was “++ (++ means a Ki(cathepsin K)/Ki(calpain) ratio of ≧30)”. The “Sel cat. L” value at cathepsin L is recorded as “++ (++ means a Ki(cathepsin L)/Ki(calpain) ratio of ≧50)”.

Consider `COc1ccc(CC(NC(=O)c2cccnc2-n2ccc(-c3ccc(F)cc3OC)n2)C(=O)C(N)=O)cc1` (centres unmarked) [Example 136, N-(3-Amino-1-{[4-(methyloxy)phenyl]methyl}-2,3-dioxopropyl)-2-{3-[4-fluoro-2-(methyloxy)phenyl]-1H-pyrazol-1-yl}pyridine-3-carboxamide], for which, at cathepsin S, the “Sel cat. S” value is “++ (++ means a Ki(cathepsin S)/Ki(calpain) ratio of ≧100)”. For the same compound, the “Sel cat. B” value on cathepsin B is “++ (++ means a Ki(cathepsin B)/Ki(calpain) ratio of ≧30)”. Also, on cathepsin K, the “Sel cat. K” value is reported as “++ (++ means a Ki(cathepsin K)/Ki(calpain) ratio of ≧30)”. Moreover, on cathepsin L, the “Sel cat. L” value is reported as “++ (++ means a Ki(cathepsin L)/Ki(calpain) ratio of ≧50)”.
